Each structure is given as a SMILES string. Entries after “also recorded” stand apart in the source; their conditions may differ. Like-named read-outs stand apart in the source and are kept apart here.

Data on 4 compounds can be found in US8901294B2, “MRI contrast agent having gadolinium complex” (priority 2010, dated 2014).

For one data set, the system named is ICR mice. Description: In vivo MRI test. The settings on record: 0.1 mmol of Gd/kg. The protocol: (§1) To study the contrasting effect of the MRI contrast agent according to the present invention, six-week-old male ICR mice (weight=29-31 g) were used for the in vivo study. The mice were anesthetized by 1.5% isoflurane in oxygen and treated with gadolinium complex (5c) of the present invention at amount of 0.1 mmol of Gd/kg. After the treatment, the mouse was revived from anesthesia and placed in the cage with free access to food and water. The animals were maintained at approximately 37° C. using a warm water blanket.
MR images were taken with 1.5 T (GE Healthcare, Milwaukee, Wis., USA) equipped with a homemade small animal RF coil. The coil was of the receiver type with its inner diameter being 50 mm. The imaging parameters for 3D fast SPGR (spoiled GRASS images) are as follows: repetition time (TR)=8.8 ms; echo time (TE)=3.9 ms; 10 mm field of view (FOV); 256×192 matrix size; 1.0 mm slice thickness; number of acquisition (NEX)=4. The imaging parameters for spin-echo are as follows: TR=500 ms; TE=13 ms; 6 mm FOV; 192×128 matrix size; 1.5 mm slice thickness; NEX=4. Each image was taken with an interval of 3 min and 16 s. […] For analysis of the obtained MR images, signal intensities in specific regions of interest (ROI) were measured using Advantage Window software (GE Medical, USA). The CNR was calculated using Equation 3, where SNR is the signal-to-noise ratio. […]

Data set [1] can be described thus: Relaxation times (T1, T2) and relaxivities (R1, R2) at 1.5 T. Type of data set: physicochemical. The protocol: T1 measurements were carried out using an inversion recovery method with a variable inversion time (TI) at 1.5 T. The MR images were acquired at 35 different TI values ranging from 50 to 1750 ms. T1 relaxation times were obtained from the nonlinear least-squares fit of the signal intensity measured at each T1 value. For T2 measurements the CPMG (Carr-Purcell-Meiboon-Gill) pulse sequence was adapted for multiple spin-echo measurements. Thirty-four images were acquired with 34 different echo time (TE) values. T2 relaxation times were obtained from the nonlinear least-squares fit of the mean pixel values for the multiple spin-echo measurements at each echo time. Relaxivities were then calculated as an inverse (R=1/s·mM) of relaxation time per mM. The determined relaxation times and relaxivities are finally transformed to a phantom map. The phantom images were obtained with the same concentration of Dotarem® and gadolinium complexes or comparative purposes. […] Table 2 summarizes the relaxation times and relaxivities for gadolinium complexes of the present invention along with other Gd-complexes.

Data set [2] can be described thus: ICP measurement of Gd(III) ion concentration in organs with time. Format: in vivo, mice. On the set-up: unit not given here. How it is done: as §1
The excretion via the bile duct was further confirmed by measuring the concentration of Gd(III) ions with time through inductively coupled plasma (ICP) measurement. At 6 h after the injection, the Gd(III) ions were detected in the intestine, confirming that they are excreted via the liver and the bile duct.

The conditions of data set [3]: reference values from ref. 8 or 9; cited from earlier work.
A short description of data set [4]: Transmetalation kinetics: evolution of paramagnetic relaxation rate R1P(t)/R1P(0) in presence of ZnCl2. Type of data set: physicochemical. The conditions noted are these: for pattern of evolution of the paramagnetic relaxation rate R1P(t)/R1P(0) (in words): phosphate-buffered solution pH 7.4, 2.5 mmol/L Gd-complex and 2.5 mmol/L ZnCl2, 72 hours. The text has this:
[…]. The relative value of R1^P at time t, R1^P(t)/R1^P(0), is therefore a good estimate of the extent of transmetalation. The evolution of R1^P(t)/R1^P(0) over time gives relevant information about the kinetics of the reaction, whereas the plateau value theoretically reached at t=∞ will reflect the thermodynamic aspect.
Accordingly, in order to investigate the transmetalation kinetics of the gadolinium complexes according to the present invention, the evolution of water proton relaxation rate (R1^P) of a phosphate-buffered solution (pH 7.4) containing 2.5 mmol/L of Gd-complex and 2.5 mmol/L of ZnCl2 with time was measured. To measure the change in the relaxation rate, 10 μL of a ZnCl2 solution (250 mmol/L) was added to 1 mL of a buffered solution of the Gd-complex and the mixture was vigorously stirred. The same experiment was performed with Dotarem®, Omniscan®, Multihance®, Primovist® and ethyl tranexamate (6) with zinc acetate for comparison. The measurement was made on a 3T whole body system (Magnetom Tim Trip; Simens, Germany) at room temperature.

The conditions of data set [5]: 20 MHz, 298 K; cited from earlier work.

Consider `C=CCOC(=O)C1CCC(CNC(=O)CN2CCN(CC(=O)[O-])CCN(CC(=O)[O-])CCN(CC(=O)[O-])CC2)CC1.O.[Gd+3]` (stereo not shown) [Compound 5c], for which the “excretion pattern (MR images)” value in the data set with ICR mice is recorded as “excreted slowly to the intestine via the bile duct through hepatobiliary uptake”. For the same compound, in the data set on ICR mice (1.5 T), the “MR contrasting effect in the liver” value was “enhances contrast of the liver”. The “R1 value compared with commercially available contrast agents (in words)” value in data set [1] (1.5 T) is “significantly higher R1 values than any of the clinically used contrast agents; also recorded: very high R1 values”. The compound also gave an R1 relaxivity in data set [1] (1.5 T, mean value(±SD)) of 9.5 ± 0.12 mM⁻¹ s⁻¹. The same compound displayed an R2 relaxivity in data set [1] (1.5 T, mean value(±SD)) of 10.9 ± 0.03 mM⁻¹ s⁻¹. This compound also yielded a T1 relaxation time in data set [1] (1.5 T, mean value(±SD)) of 105.28 ± 1.33 ms. In addition, in data set [1] (1.5 T, mean value(±SD)), the T2 relaxation time was determined as 91.74 ± 0.25 ms. Besides, the “R1 value relative to that of Dotarem” value in data set [1] (ratio of R1 values) is given as 2.6 times. In addition, the “concentration of Gd(III) ions (ICP)” value in data set [2] (Bile duct, 6 h after injection) is 13.95; in data set [2] (Blood, 1 h after injection) it was 5.16; in data set [2] (Blood, 6 h after injection) it was 0.12; in data set [2] (Intestine, 6 h after injection), 2.485; in data set [2] (Kidney, 1 h after injection) it was 65.17; in data set [2] (Kidney, 6 h after injection), 68.22. The “concentration of Gd(III) ions (ICP)” value in data set [2] (Kidney, 24 h after injection) is recorded as 10.89; in data set [2] (Kidney, 48 h after injection) it was 6.91; in data set [2] (Liver, 1 h after injection), 62.09; in data set [2] (Liver, 6 h after injection), 50.90; in data set [2] (Liver, 24 h after injection), 33.73; in data set [2] (Liver, 48 h after injection), 35.90. In addition, the “concentration of Gd(III) ions (ICP)” value in data set [2] (Liver, 72 h after injection) is on record as 6.22.
With `CCOc1ccc(CC(CN(CCN(CC(=O)[O-])CC(=O)[O-])CC(=O)[O-])N(CC(=O)[O-])CC(=O)[O-])cc1.[Gd+3].[Na+].[Na+]` (stereo not shown) [Primovist], in data set [3], the R1 relaxivity is 4.7 ± 0.2 mM⁻¹ s⁻¹, the R2 relaxivity is 5.1 ± 0.6 mM⁻¹ s⁻¹, the T1 relaxation time was 213.15 ± 9.07 ms and the T2 relaxation time was 198.83 ± 23.4 ms. The “pattern of evolution of the paramagnetic relaxation rate R1P(t)/R1P(0) (in words)” value in data set [4] is on record as “drastic decrease in the rate”.
For `CNC(=O)CN(CCN(CCN(CC(=O)[O-])CC(=O)NC)CC(=O)[O-])CC(=O)[O-].[Gd+3]` [Omniscan, [Gd(DTPA-bismethylamide)(H2O)]], in data set [3], the R1 relaxivity is 4.9 ± 0.14 mM⁻¹ s⁻¹, the R2 relaxivity was 3.4 ± 0.25 mM⁻¹ s⁻¹, the T1 relaxation time was 209.8 ± 5.82 ms and the T2 relaxation time was 290.9 ± 21.02 ms. The “paramagnetic relaxation rate retained, R1P(t)/R1P(0) (kinetic stability)” value in data set [4] (72 hours, phosphate-buffered solution pH 7.4, 2.5 mmol/L Gd-complex and 2.5 mmol/L ZnCl2, room temperature, 3T) is listed as 30%. Besides, the “pattern of evolution of the paramagnetic relaxation rate R1P(t)/R1P(0) (in words)” value in data set [4] was “drastic decrease in the rate”. The magnetic relaxation rate entry in data set [5] is on record as “about 4.4 mM^−1s^−1”.
For the compound `CNC[C@H](O)[C@@H](O)[C@H](O)[C@H](O)CO.CNC[C@H](O)[C@@H](O)[C@H](O)[C@H](O)CO.O=C([O-])CN(CCN(CC(=O)[O-])CC(=O)O)CCN(CC(=O)[O-])CC(=O)O.[Gd+3]` [Magnevist, (N-Me-glucamine)2[Gd(DTPA)(H2O)]], the magnetic relaxation rate result in data set [5] was “about 4.7 mM^−1s^−1”.
